{
  "source": "patent US20160113900A1",
  "about": "“INHIBITORS OF MITOCHONDRIAL STAT3 AND USES THEREOF IN MODULATION OF MAST CELL EXOCYTOSIS” (Yissum Research Development Company of the Hebrew …, priority 2014, published 2016)",
  "key": {"BMMC": {"system": "BMMC", "assay": "ATP determination (ATPLite luminescence) in BMMC", "assay_type": "cell-based, mouse", "conditions": "60 μM Stattic, 20 min", "procedure": "(§1) RBL-2H3 cells were maintained in RPMI 1640 medium as previously described1. Bone marrow was isolated from 5-6 week-old mice, and BMMC were cultured in RPMI medium supplemented with 20 ng/ml interleukin-3 (IL-3) and 20 ng/ml SCF as previously described2, 3. Cells were generally grown for a minimum of 4 weeks and used when >90% of the population expressed FcεRI. BMMC and RBL cells were sensitized first with anti-DNP IgE monoclonal antibody (SPE-7; Sigma-Aldrich Corp.) and then challenged with DNP-BSA (Sigma-Aldrich Corp.). IgE antibody was centrifuged (18,000 g, 5 min) before use to remove aggregates. […] For glycolysis elimination cells were maintained in glucose-free RPMI supplemented with 10% dialyzed fetal calf serum and 5 mM galactose.\n(§2) ATP levels were measured using the ATPLite luminescence-based assay according to the manufacturer's instructions (Perkin Elmer, Waltham, Mass., USA)."}, "[1]": {"system": "cytochrome c oxidase (COX, complex 4)", "assay": "ETC complex activity analysis in treated RBL cells: complex 4", "assay_type": "cell-based, rat", "conditions": "60 μM Stattic, 30 min", "procedure": "(§3) The enzymatic activities of respiratory chain complexes were measured at 37° C. by standard spectrophotometric methods as previously described5, 6. Briefly, complex II was measured as succinate dehydrogenase (SDH) based on the succinate-mediated phenazine methosulfate reduction of dichloroindophenol at 600 nm Complex 2+3 were measured as succinate cytochrome c reductase and after the reduction of oxidized cytochrome c at 550 nm. Complex 4 (cytochrome c oxidase) was measured by following the oxidation of reduced cytochrome c at 550 nm.\n(§4) Citrate synthase (CS), an ubiquitous mitochondrial matrix enzyme, serving as a control, was measured in the presence of acetylCoA and oxaloacetate by monitoring the liberation of CoASH coupled to 5′,5′-dithiobis(2-nitrobenzoic) acid at 412 nm. Activities are presented as a ratio to CS. Protein concentration was determined by the Lowry method and calculated according to a bovine serum albumin (BSA) standard curve."}, "RBL cells [2]": {"system": "RBL cells", "assay": "TNF-α secretion of activated RBL cells", "assay_type": "cell-based, rat", "conditions": "RBL cells, IgE/DNP-BSA, 60 μM Stattic 20 min"}, "[3]": {"system": "succinate cytochrome c reductase (complex 2+3)", "assay": "ETC complex activity analysis in treated RBL cells: complex 2+3", "assay_type": "cell-based, rat", "conditions": "60 μM Stattic, 30 min, ratio to citrate synthase", "procedure": "as §3, §4"}, "RBL cells [4]": {"system": "RBL cells", "assay": "β-Hexosaminidase release assay (degranulation) in RBL cells", "assay_type": "cell-based, rat", "conditions": "RBL cells", "procedure": "as §1\n1×104 RBL or 3×104 BMMC were immunologically activated as described above. After IgE incubation, the cells were washed three times with 5 mL of degranulation buffer (NaCl 130 mM, KCl 5 mM, Glucose 5.6 mM, MgCl2 1 mM, CaCl2 1.2 mM, Hepes pH 7.4 10 mM, BSA 0.1%) and resuspended in 200 μL of the same buffer with DNP-albumin for 30 min. The release of β-hexosaminidase was determined in triplicates in a 96-well plate. Aliquots (20 μL) of supernatants and cell lysates were incubated for 30 minutes with 100 μL of substrate solution (1.3 mg/mL p-nitrophenyl-b-D-2-acetamido-2-deoxyglucopyranozide in 0.1 M citrate [pH 4.51]). The reaction was stopped by the addition of 200 μL of 0.2 M glycine (pH 10.7). The plate OD was read in an enzyme-linked immunosorbent assay (ELISA) reader at a wavelength of 405 nm Percent release values for each experimental condition were calculated3."}, "caspase3": {"system": "caspase3", "assay": "Western blot of caspase3 / cleaved caspase3 (apoptosis) in RBL cells", "assay_type": "cell-based, rat", "conditions": "activated RBL cells, 60 μM Stattic", "procedure": "RBL cells and mitochondrial pellets were lysed by the addition of lysis buffer (50 mM Tris-HCl pH 7.4, 1% Nonidet P-40, 0.25% Na-deoxycholate, 150 mM NaCl, 1 mM EDTA, 1 mM PMSF) supplemented with 15 μl protease inhibitor (Sigma-Aldrich). Cells and mitochondria were vortexed and incubated on ice for 15 min. The lysates were then centrifuged at 14,000 g for 15 min and pellets were discarded. The protein concentration of each sample was determined using Bradford Reagent (Sigma-Aldrich). Proteins were resolved by 10-15% SDS-PAGE under reducing conditions and transferred to polyvinylidene difluoride membranes (Millipore Billerica, Ma). The membranes were incubated in 5% fat-free milk and TBST (10 mM Tris-HCl, pH 7.4, 150 mM NaCl, 0.1% Tween 20) for 1 h and then in 5% BSA and TBST containing various dilutions of primary Abs for 18 h at 4° C. The membranes were washed three times with TBST for 5 mM before and after each incubation with secondary Ab. The proteins were detected with the appropriate secondary Ab (1 h; room temperature) coupled to HRP-conjugated goat anti-rabbit or anti-mouse Ab and visualized by chemiluminescence according to the manufacturer's instructions (Pierce)."}, "RBL cells [5]": {"system": "RBL cells", "assay": "ATP determination (ATPLite luminescence) in RBL cells", "assay_type": "cell-based, rat", "conditions": "RBL cells, 60 μM Stattic, 20 min", "procedure": "as §1, §2"}, "[6]": {"system": "STAT3 serine 727 phosphorylation", "assay": "Western blot of STAT3 serine 727 phosphorylation in activated RBL cells", "assay_type": "cell-based, rat", "conditions": "RBL cells, 60 μM Stattic 20 min, immunologically activated 5 min", "procedure": "RBL cells were washed once in cold PBS prior to homogenization. 9×10^6 cells were homogenized in buffer A (320 mm sucrose, 5 mm Tris, 2 mm EGTA, pH 7.4) with 10 strokes of a Teflon Dounce homogenizer. The procedure was performed at 4° C. The homogenate was centrifuged for 3 min at 2000 g and the supernatant kept. This was repeated twice, and the supernatants combined then centrifuged for 3 min at 2000 g. to remove the nuclei and cell debris. The supernatant was transferred to a clean tube and centrifuged for 10 min at 12,000 g to pellet mitochondria, washed twice resuspended in a small volume of buffer A and stored at −70° C. In order to prepare mitoplasts, the mitochondrial pellet was resuspended in buffer A with the addition of 0.02% (w/v) digitonin. The pellet was resuspended and washed twice in large volumes of digitonin-free buffer A. […] Cells and mitochondria were vortexed and incubated on ice for 15 min. The lysates were then centrifuged at 14,000 g for 15 min and pellets were discarded. The protein concentration of each sample was determined using Bradford Reagent (Sigma-Aldrich). Proteins were resolved by 10-15% SDS-PAGE under reducing conditions and transferred to polyvinylidene difluoride membranes (Millipore Billerica, Ma). […] The membranes were washed three times with TBST for 5 mM before and after each incubation with secondary Ab. The proteins were detected with the appropriate secondary Ab (1 h; room temperature) coupled to HRP-conjugated goat anti-rabbit or anti-mouse Ab and visualized by chemiluminescence according to the manufacturer's instructions (Pierce)."}, "CBMC": {"system": "CBMC", "assay": "β-Hexosaminidase release assay (degranulation) in human cord blood-derived mast cells", "assay_type": "cell-based", "conditions": "60 μM Stattic 5 min before α-human-IgE, control cells 20.9±4.9"}},
  "data": [
    {"compound": "O=[N+]([O-])c1ccc2c(c1)S(=O)(=O)C=C2", "note": "[Stattic, 6-Nitrobenzo[b]thiophene 1,1-dioxide, reference compound]", "values": [
      {"measurement": "reduction in ATP levels", "setting": "BMMC", "value": "76.4±9.3", "unit": "%"},
      {"measurement": "change in cytochrome c oxidase (COX, complex 4) activity", "setting": "[1]", "value": "No significant change"},
      {"measurement": "TNF-α secretion", "setting": "RBL cells [2]", "value": "completely abolished"},
      {"measurement": "reduction in complex 2+3 activity", "setting": "[3]", "value": "50.8±6.1", "unit": "%"},
      {"measurement": "degranulation", "setting": "RBL cells [4]; 5 min incubation with Stattic (data not shown)", "value": "totally abolished"},
      {"measurement": "β-hexosaminidase release", "setting": "RBL cells [4]; IgE/DNP-BSA, 60 μM Stattic 20 min", "value": "completely abolished"},
      {"measurement": "effect on IgE-Ag mediated β-hexosaminidase release, dependence on concentration", "setting": "RBL cells [4]; stated concentrations of Stattic (FIG. 6)", "value": "concentration dependent"},
      {"measurement": "caspase3 levels (apoptosis)", "setting": "caspase3", "value": "no change"},
      {"measurement": "reduction in ATP levels", "setting": "RBL cells [5]", "value": "72.0±9.0", "unit": "%"},
      {"measurement": "phosphorylation levels of STAT3 serine 727 in total cell lysate", "setting": "[6]", "value": "significant reduction"},
      {"measurement": "degranulation (β-hexosaminidase release)", "setting": "CBMC", "value": "3.5±1.9"}
    ]}
  ]
}
